What is called inhibition is the change of the read-out against control, counted positive when it falls.

For this experiment, the target named is Aldo-keto reductase family 1 member B1 (Rattus norvegicus) (UniProt P07943). The experiment can be described thus: Inhibition of Rattus norvegicus albino (rat) kidney aldose reductase using D-L-glyceraldehyde as substrate assessed as decrease in NADPH concentration at 3.3 x 10^-6 M after 5 min by spectrophotometric analysis.
In the case of `C=C(NC(C)=O)C(=O)NCc1ccccc1`, the inhibition came to 2.48%. Turning to `C=C(NC(C)=O)C(=O)N1CCCC1`, the inhibition stood at 0%. For `C=C(NC(C)=O)C(=O)N1CCCCC1` the value was 3.4%.

On to `C=C(NC(C)=O)C(=O)NCCC`, for which the inhibition amounted to 4.32%. Under `C=C(NC(C)=O)C(=O)NC` stands 9.46%; under `C=C(NC(C)=O)C(=O)Nc1nnc(CC)s1`, 4.5%. Under `C=C(NC(C)=O)C(=O)NCCCCl` stands 19.6%; under `C=C(NC(C)=O)C(=O)NCC`, 13.1%. Consider `C=C(NC(C)=O)C(=O)NCCC(C)C`, for which the inhibition was determined as 4.13%. Under `C=C(NC(C)=O)C(=O)NCc1ccc(Cl)cc1` stands 2.3%; under `C=C(NC(C)=O)C(=O)NCc1ccccc1Cl`, 7.26%. Under `C=C(NC(C)=O)C(=O)NC(C)CC` (stereo not given) stands 0%; under `C=C(NC(C)=O)C(=O)NC(C)C`, 3.77%; under `C=C(NC(C)=O)C(=O)NCc1ccccc1OC`, 0%. Under `C=C(NC(C)=O)C(=O)NC(C)(C)CC` stands 3.22%.

These data come from ChEMBL document CHEMBL3045691, “Evaluation of rat kidney aldose reductase inhibitory activity of some N-acetyl dehydroalanine derivatives” (Med Chem Res, 2011).
